PMC5940854, “Nitrothiophene carboxamides, a novel narrow spectrum antibacterial series: Mechanism of action and Efficacy” (Scientific Reports, 2018)
In brackets after ≈: the same amount, converted by molar mass.

Columns and labels:
[1] = Intravenous pharmacokinetics; format: in vivo, BALB/c mice; settings: for AUC / AUC(0-inf) / AUC(0-t) / clearance / half-life / Vd: BALB/c, mouse, in vivo; for AUC: iv, 2 mg/kg, used for estimation of oral bioavailability; for AUC(0-inf) / AUC(0-t) / clearance / half-life / Vd / AUMC0-∞ / Clast / Kel(β) / extr AUC: mice, single IV dose 2 mg/kg; for Vd: read-out: Vss; for condition of mice post dose and throughout the study: single intravenous dose of 2 mg/kg or single oral dose of 10 mg/kg
Experimental: The test substances were formulated in the vehicle DMSO: PEG400: Ethanol (absolute): Water at ratio of 10:40:20:30 (v/v). The required quantity of test compound was weighed, transferred into a vial and dissolved using the appropriate volumes of DMSO, PEG400, Ethanol (absolute) and sterile water in a sequential manner until a clear solution was obtained. The test substance was administered intravenously as a bolus via the tail vein at a dose volume of 5 ml/kg.
At 5 min, 15 min, 30 min, 1 h, 2 h, 4 h, 8 h, and 24 h time points, and prior to sampling, mice were anaesthetized with isoflurane. From each mouse, two blood samples were drawn; the 1st was non-terminal (0.1 ml) and the 2nd terminal, by retro-orbital plexus puncture using heparanised capillary tubes. Blood was collected in 2 ml Eppendorf tubes containing 0.01 ml of 10% K2EDTA as anticoagulant, mixed gently and placed in ice before centrifugation. Blood was centrifuged at 10,000 rpm for 5 min, and plasma was harvested and stored at −80 °C until bioanalysis.
Ultrafast liquid chromatography mass spectrometric method was used for the estimation of test compounds in pre-clinical study samples. The analysis was performed using an API 4000 LC-MS/MS system. The interface used with the API 4000 LC-MS/MS was a Turbo Ion spray. The positive ions were measured in MRM mode. The analyte was extracted using a solid-phase extraction procedure. The data was acquired by and integrated using the Applied Biosystems “Analyst” version 1.5.2 software. Linear regression, with 1/x^2 weighting was used for calibration.
Non-compartmental (NCA) PK analysis was performed using MS Excel. The linear trapezoidal rule was used to estimate the AUC. The NCA analysis was performed using the following equations (3) on mean concentration time data: AUC=Σ[(Ci1+Ci2)/2]∗[ti2−ti1] AUMC=Σ[((Ci1∗ti1)+(Ci2∗ti2))/2)∗(ti2−ti1)] AUCt−∞=Clast/Kel AUC0−∞=AUC0−t+AUCt−∞ AUCextrapolated(%)=[AUCt−∞/AUC0−∞]∗100 where, Ci1 and Ci2 are the concentrations at times ti1 and ti2, respectively. Kel=ln(Cx/Cy)/(ty−tx) where, Kel is the first order elimination rate constant, ln is the natural logarithm, Cx and Cy are the first and last concentrations, respectively on the linear portion of the terminal phase of the concentration-time profile, and ty and tx are the corresponding time points. T1/2=0.693/Kel Cl=Doseiv/AUC0−∞ Vss=(AUMC0−∞/AUC0−∞)∗(Doseiv/AUC0−∞) Cmax and tmax were visually estimated from the mean oral conc-time profile F(%)=(AUCpo/AUCiv)∗(Doseiv/Dosepo)∗100

[2] = system: Klebsiella pneumoniae ATCC13883; experiment: MIC, Klebsiella pneumoniae; format: cell-based; settings: for MIC Klebsiella pneumoniae: ATCC13883; for fold lower potency in comparison to E. coli WT MIC: WT K. pneumoniae ATCC strain
Experimental: (§1) The inoculum used for all the experiments is derived from a single seed lot that is maintained as glycerol stocks at −80 °C and are sub cultured on LB plate for isolated colonies. Single colony of each strain is grown in M9 medium. All test compound stocks and dilutions are prepared in DMSO. Serial two-fold dilutions of compounds are prepared separately, with the concentrations ranging from 2 mg/mL to 0.015 mg/mL. To 150 µl (3–7 × 10^5 CFU/ml) of bacterial culture in 96 well microtitre plates, 3 μL compound from each of the dilutions is added to respective wells to obtain final concentrations ranging from 40 µg/mL to 0.3 µg/mL of the test compounds. Media control, culture control and appropriate reference drug controls are included. […] Growth is monitored by checking absorbance at 600 nm (A600). […] The samples from MIC and above concentrations are plated for MBC (Minimum Bactericidal Concentration). The samples are diluted 1:10 and plated on LB agar plates. […] The killing kinetics is determined by enumerating survivors at various time points following compound exposure. E. coli cells (~10^7 CFU/ml; A600 of 0.1) are treated with various concentrations (40 µg/mL to 0.3 µg/mL) of compounds in a 96-well microtitre plate. At various time intervals (0 to 8 h), 30 μl volumes of treated cultures are serially diluted and plated on LB agar plates. […] Data is expressed as the log10 CFU for each drug treatment.

E. coli ∆nfsB = experiment: microbe, parasite or virus in culture; format: cell-based; settings: Escherichia coli, read-out: MIC ∆nfsB
Experimental: To assess the biological relevance of the interacting protein and establish the link between nitroreductases to the antibacterial activity of NTC compounds, single (ΔnfsA or ΔnfsB) and double knockouts (ΔnfsA & ΔnfsB) of nitroreductases were generated by phage transduction using strains from the Keio collection.
as §1
The wild-type E. coli strain BW25113 and the entire Keio collection of knockouts[22] is maintained as glycerol stocks at −80 °C in 96-well deep well blocks. […] These are sub cultured in 150 µl of LB broth (Kanamycin 50 ug/ml, except for the wild-type strain) in 96 well microtiter plates and then adapted into M9 medium with 0.4% glucose. […] Cultures of single gene knockouts that show an altered MIC as compared to that of the wild type are scored as ‘Hits’.

[3] = system: clinical isolate of E. coli (Strain No. 371); experiment: Neutropenic thigh infection, E. coli clinical isolate; format: in vivo, BALB/c mice; settings: for Log10CFU Mean Diff. vs. Untreated Controls: Study TI-2014-023, Clinical Isolate N. 371, 100mg/kg per oral; for efficacy in thigh infection model (in words): clinical isolate of E. coli
[4] = system: Salmonella typhimurium clinical strain; experiment: MIC, Salmonella typhimurium; format: cell-based
Experimental: as §1, with “plate.” for “plate. At various time intervals (0 to 8 h), 30 μl volumes of treated cultures are serially diluted and plated on LB agar plates.”

E. coli ∆acrB JW0451-2 = experiment: MIC, E. coli ∆acrB; format: cell-based; parameters: MIC ∆acrB: unit not given beside the values; settings: for MIC: Escherichia coli, read-out: MIC acrB; for MIC ∆acrB: Table S11
Experimental: as §1

Cytotoxicity, MTS assay = format: cell-based; settings: human, A549 cells
Experimental: Cytotoxicity of the compounds was evaluated using MTS ((3-(4,5-dimethylthiazol-2-yl)-5-(3-carboxymethoxyphenyl)-2-(4-sulfophenyl)-2H-tetrazolium)) assay. A-549 cells were seeded in a 96 well plate at a density if 1.5 × 10^4 cells/well (100 μL). The cells were cultured in a CO2 incubator at 37 °C. A ten point concentration curve was set up starting from 5 nM to 100 μM with 3 fold dilution along with positive, negative and blank controls. The final concentration of DMSO was maintained at 1% throughout the plate. The compound treatment was carried out for 24 hrs. After incubation MTS reagent was added followed by 30 min incubation. The absorbance was measured at 490 nm. Data analysis was done using GraphPad Prism 6.0.

E. coli BW24113 = experiment: In vitro time kill analysis; format: cell-based; settings: for time to 99.9% reduction: at 2–4X MIC; for time to total kill (below the limit of quantitation, LOQ): at 8X MIC
Experimental: as §1

Row | SMILES | AUC [1] | AUC(0-inf) [1] | AUC(0-t) [1] | clearance [1] | half-life [1] | Vd [1] | AUMC0-∞ [1] | Clast [1] | Kel(β) [1] | extr AUC [1] | condition of mice post dose and throughout the study [1] | MIC Klebsiella pneumoniae [2] | fold lower potency in comparison to E. coli WT MIC [2] | MIC (E. coli ∆nfsB) | Log10CFU Mean Diff. vs. Untreated Controls [3] | efficacy in thigh infection model (in words) [3] | MIC Salmonella typhimurium [4] | MIC (E. coli ∆acrB JW0451-2) | MIC ∆acrB (E. coli ∆acrB JW0451-2) | IC50 at 24 h (Cytotoxicity, MTS assay) | further results
1 | O=C(Nc1nc(-c2ccc(F)cc2F)cs1)c1ccc([N+](=O)[O-])s1 [compound 12, N-(4-(2,4-difluorophenyl)thiazol-2-yl)-5-nitrothiophene-2-carboxamide] | 570 ng·h/mL | 570 ng·h/mL | 570 ng·h/mL | 58.7 mL/min/kg | 36 min | 1.64 L/kg | 0.26 | 3 ng/mL | 1.18 ^-h | 0.4% | visibly normal | 2.5 µg/mL (≈ 6.81 µM) | 4-8 fold | 2.5 µg/mL (≈ 6.81 µM) | 1.907 Log10CFU | significantly bactericidal | 2.5 µg/mL (≈ 6.81 µM) | 0.3 µg/mL (≈ 0.817 µM) | 0.3 | 16.9 µg/mL (≈ 46 µM) | 
2 | O=C(Nc1nc(-c2ccc(F)cc2)cs1)c1ccc([N+](=O)[O-])s1 [compound 15, N-(4-(4-Fluorophenyl)thiazol-2-yl)-5-nitrothiophene-2-carboxamide] | 910 ng·h/mL | 911 ng·h/mL | 900 ng·h/mL | 36.7 mL/min/kg | 30 min | 0.4 L/kg | 0.17 | 12 ng/mL | 1.51 ^-h | 0.9% | visibly normal | 5 µg/mL (≈ 14.3 µM) | 4-8 fold | 5 µg/mL (≈ 14.3 µM) | 1.553 Log10CFU | significantly bactericidal |  | 0.6 µg/mL (≈ 1.72 µM) | 0.6 | 10.2 µg/mL (≈ 29.2 µM) | time to 99.9% reduction (E. coli BW24113): 6 to 8 h; time to total kill (below the limit of quantitation, LOQ) (E. coli BW24113): 8 h
3 | COc1cc(-c2csc(NC(=O)c3ccc([N+](=O)[O-])s3)n2)ccc1Cl [compound 20, N-(4-(4-chloro-3-methoxyphenyl)thiazol-2-yl)-5-nitrothiophene-2-carboxamide] |  |  |  |  |  |  |  |  |  |  |  | 10 µg/mL (≈ 25.3 µM) | 4-8 fold | 2.5 µg/mL (≈ 6.32 µM) |  |  | 10 µg/mL (≈ 25.3 µM) | 0.3 µg/mL (≈ 0.758 µM) | 0.3 | 8.3 µg/mL (≈ 21 µM) | time to 99.9% reduction (E. coli BW24113): 6 to 8 h; time to total kill (below the limit of quantitation, LOQ) (E. coli BW24113): 8 h
4 | O=C1CN(/N=C/c2ccc([N+](=O)[O-])o2)C(=O)N1 [nitrofurantoin, reference compound] |  |  |  |  |  |  |  |  |  |  |  |  |  | 2.5 µg/mL (≈ 10.5 µM) |  |  |  |  |  |  | 
5 | Cc1sc(NC(=O)c2ccc([N+](=O)[O-])s2)nc1-c1ccccc1 [compound 7, N-(5-Methyl-4-phenylthiazol-2-yl)-5-nitrothiophene-2-carboxamide] |  |  |  |  |  |  |  |  |  |  |  |  |  | > 40 µg/mL |  |  |  | 1.25 µg/mL (≈ 3.62 µM) |  |  | 
